According to patent US4396770A, “1-[3-(6-Fluoro-1,2-benzisoxazol-3-yl)propyl]-4-hydroxy -4-phenylpiperidines” (Hoechst-Roussel Pharmaceuticals Inc., priority 1982, dated 1983):
Where two headings read alike, the source gives them in different places.

Columns and labels:
[1] = tested on: apomorphine-induced climbing; assay: climbing mice assay (antipsychotic activity); format: in vivo, CK-1 male mice; conditions: Mus musculus, ip
Procedure: The 1-[3-(6-fluoro-1,2-benzisoxazol-3-yl)propyl]-4-hydroxy-4-phenylpiperidinesof the present invention are useful for treating psychoses by virtue of their ability to block apomorphine-induced climbing in mammals.
Antipsychotic activity is determined in the climbing mice assay by a method similar to those described by P. Protais et al., Psychopharmacol., 50, 1 (1976) and B. Costall, Eur. J. Pharmacol., 50, 39 (1978).
The subject CK-1 male mice (23-27 grams) are group-housed under standard laboratory conditions. The mice are individually placed in wire mesh stick cages (4"×4"×10") and are allowed one hour for adaptation and exploration of the new environment. Then apomorphine is injected subcutaneously at 1.5 mg/kg, a dose causing climbing in all subjects for 30 minutes. Compounds to be tested for antipsychotic activity are injected intraperitoneally 30 minutes prior to the apomorphine challenge at a screening dose of 10 mg/kg.
For evaluation of climbing, 3 readings are taken at 10, 20 and 30 minutes after apomorphine administration according to the following scale:
Mice consistently climbing before the injection of apormorphine will be discarded.
With full-developed apomorphine climbing, the animals are hanging onto the cage walls, rather motionless, over longer periods of time. By contrast, climbs due to mere motor stimulation usually only last a few seconds.
The climbing scores are individually totaled (maximal score: 6 per mouse over 3 readings) and the total score of the control group (vehicle intraperitoneally--apomorphine subcutaneously) is set to 100%. ED50 values with 95% confidence limits are calculated by a Linear Regression Analysis. Antipsychotic activity expressed as the ED50 value of representative 1-[3-(6-fluoro-1,2-benzisoxazol-3-yl)propyl]-4-hydroxy-4-phenylpiperidinesas well as two standard antipsychotics are presented in Table II.

[2] = tested on: phenyl-para-quinone induced writhes; assay: phenyl-para-quinone writhing assay in mice (analgesia); format: in vivo; conditions: Mus musculus, sc, subcutaneous, estimated dose for 50% reduction in phenyl-para-quinone induced writhes, read-out: Analgesic Activity (ED50 mg/kg)
Description: Exptl. Biol. Med., 95, 729 (1953)]. Presented in Table 1 is the analgesic activity of representative compounds of the invention and two standards, expressed as the estimated subcutaneous dose at which the mice experience a 50% reduction in phenyl-para-quinone induced writhes, i.e., the ED50 -value.

[3] = read-out: Antipsychotic Activity ED50 (mg/kg)

| SMILES | ED50 [1, 3] | ED50 [2] | ED50 ([1]; mice, intraperitoneal 30 minutes prior to apomorphine 1.5 mg/kg subcutaneously, climbing scores at 10, 20 and 30 minutes, read-out: Antipsychotic Activity ED50) |
| --- | --- | --- | --- |
| OC1(c2ccccc2)CCN(CCCc2noc3cc(F)ccc23)CC1 [Example 1, 1-[3-(6-Fluoro-1,2-benzisoxazol-3-yl)propyl]-4-hydroxy-4-phenylpiperidine] | 9.6 mg/kg | 5.9 mg/kg | – |
| Cl.OC1(c2cccc(Cl)c2)CCN(CCCc2noc3cc(F)ccc23)CC1 [Example 2, 4-(3-Chlorophenyl)-1-[3-(6-fluoro-1,2-benzisoxazol-3-yl)propyl]-4-hydroxypiperidine hydrochloride] | 0.8 mg/kg | 0.8 mg/kg | – |
| OC1(c2ccc(Cl)cc2)CCN(CCCc2noc3cc(F)ccc23)CC1 [Example 3, 4-(4-Chlorophenyl)-1-[3-(6-fluoro-1,2-benzisoxazol-3-yl)propyl]-4-hydroxypiperidine] | 0.51 mg/kg | – | – |
| OC1(c2ccc(F)cc2)CCN(CCCc2noc3cc(F)ccc23)CC1 [Example 4, 1-[3-(6-Fluoro-1,2-benzisoxazol-3-yl)propyl]-4-(4-fluorophenyl)-4-hydroxypiperidine] | 0.8 mg/kg | 6.2 mg/kg | – |
| Cc1ccccc1C1(O)CCN(CCCc2noc3cc(F)ccc23)CC1.Cl [Example 5, 1-[3-(6-Fluoro-1,2-benzisoxazol-3-yl)propyl]-4-hydroxy-4-(2-methylphenyl)piperidine hydrochloride] | 8.3 mg/kg | – | – |
| Cc1ccc(C2(O)CCN(CCCc3noc4cc(F)ccc34)CC2)cc1 [Example 6] | 0.56 mg/kg | – | – |
| COc1ccc(C2(O)CCN(CCCc3noc4cc(F)ccc34)CC2)cc1.Cl [Example 7, 1-[3-(6-Fluoro-1,2-benzisoxazol-3-yl)propyl]-4-hydroxy-4-(4-methoxyphenyl)piperidine hydrochloride] | – | 3.8 mg/kg | – |
| Cl.OC1(c2cccc(C(F)(F)F)c2)CCN(CCCc2noc3cc(F)ccc23)CC1 [Example 8, 1-[3-(6-Fluoro-1,2-benzisoxazol-3-yl)propyl]-4-hydroxy-4-(3-trifluoromethylphenyl)piperidine hydrochloride] | 0.25 mg/kg | 1 mg/kg | – |
| OC1(c2ccc(C(F)(F)F)cc2)CCN(CCCc2noc3cc(F)ccc23)CC1 [Example 9, 1-[3-(6-Fluoro-1,2-benzisoxazol-3-yl)propyl]-4-hydroxy-4-(4-trifluoromethylphenyl)piperidine] | 3.1 mg/kg | – | – |
| O=C(CCCN1CCC(O)(c2ccc(Cl)cc2)CC1)c1ccc(F)cc1 [haloperidol, reference compound] | 0.11 mg/kg | – | – |
| CC(C)=CCN1CCC2(C)c3cc(O)ccc3CC1C2C (centres unmarked) [pentazocin, reference compound] | – | 1.3 mg/kg | – |
| CCC(=O)O[C@](Cc1ccccc1)(c1ccccc1)[C@H](C)CN(C)C [propoxyphene, reference compound] | – | 3.9 mg/kg | – |
| CCN1CCCC1CNC(=O)c1cc(S(N)(=O)=O)ccc1OC (centres unmarked) [sulpiride, reference compound] | – | – | 4.5 mg/kg |
